These results are taken from ChEMBL document CHEMBL1151340, “Antimicrobial agents from higher plants. Antimicrobial isoflavanoids and related substances from Glycyrrhiza glabra L. var. typica” (1980).

≈ marks a conversion by molar mass, not a printed value. Calls of active or inactive are those of the source. The rule behind the calls is not given here.

Assay [1] has as its system Staphylococcus aureus. Description: Antibacterial activity against Staphylococcus aureus ATCC 13709 by agar-dilution streak method. The format is functional.
The test system of assay [2] is Escherichia coli. Description: Antibacterial activity against Escherichia coli ATCC 9637 at 100 mcg/ml by agar-dilution streak method. The format is functional, organism-based.
The subject of assay [3] is Salmonella enterica subsp. enterica serovar Gallinarum. Nature of the assay: Antibacterial activity against Salmonella gallinarum ATCC 9184 at 100 mcg/ml by agar-dilution streak method. The format is functional, organism-based.
Assay [4] relates to Klebsiella pneumoniae. Description: Antibacterial activity against Klebsiella pneumoniae ATCC 10031 at 100 mcg/ml by agar-dilution streak method. The class given is functional, organism-based.
For assay [5], the system named is Mycolicibacterium smegmatis. Description: Antibacterial activity against Mycobacterium smegmatis ATCC 607 by agar-dilution streak method. The format is functional.
The test system of assay [6] is Candida albicans. Nature of the assay: Antifungal activity against Candida albicans ATCC 10231 at 100 mcg/ml by agar-dilution streak method. The class given is functional, organism-based.
Assay [7] has as its system Mycolicibacterium smegmatis. Description: Antibacterial activity against Mycobacterium smegmatis ATCC 607 at 100 mcg/ml by agar-dilution streak method. The class given is functional.
Assay [8] relates to Staphylococcus aureus. Nature of the assay: Antibacterial activity against Staphylococcus aureus ATCC 13709 at 100 mcg/ml by agar-dilution streak method. The format is functional, organism-based.
The subject of assay [9] is Escherichia coli. Description: Antibacterial activity against Escherichia coli ATCC 9637 by agar-dilution streak method. The class given is functional.
Assay [10] deals with Candida albicans. Nature of the assay: Antifungal activity against Candida albicans ATCC 10231 by agar-dilution streak method. The format is functional.
Assay [11] concerns Salmonella enterica subsp. enterica serovar Gallinarum. Nature of the assay: Antibacterial activity against Salmonella gallinarum ATCC 9184 by agar-dilution streak method. The format is functional.
Assay [12] deals with Klebsiella pneumoniae. Nature of the assay: Antibacterial activity against Klebsiella pneumoniae ATCC 10031 by agar-dilution streak method. The format is functional.

For orientation: MIC means the lowest concentration that inhibits growth of the organism. Read a low MIC as a more susceptible organism. As for `CC(C)=CCc1cc([C@H]2Oc3c(ccc(O)c3CC=C(C)C)C(=O)[C@@H]2O)ccc1O`, the minimal inhibitory concentration (MIC) (with Staphylococcus aureus [1]; in [5]) was 6.25 µg/mL (≈ 15.3 µM) each time. Further, the result (in the assay on Escherichia coli [2]; in assay [3]; in the assay with Klebsiella pneumoniae [4]; in the assay on Candida albicans [6]) was inactive.
The molecule `COc1c(O)ccc([C@@H]2COc3c(ccc4c3C=CC(C)(C)O4)C2)c1O` came in with an MIC in the assay with Staphylococcus aureus [1] of 50 µg/mL (≈ 141 µM). Also, the outcome (in the assay on Escherichia coli [2]; in assay [3]; in the assay on Klebsiella pneumoniae [4]; in [7]; in the assay on Candida albicans [6]) was inactive.
On to `COc1ccc([C@@H]2COc3c(ccc4c3C=CC(C)(C)O4)C2)c(O)c1`, for which the minimal inhibitory concentration (MIC) was found to be 6.25 µg/mL (≈ 18.5 µM) in the assay with Staphylococcus aureus [1] and 3.12 µg/mL (≈ 9.22 µM) in assay [5]. For the same molecule, the result (with Escherichia coli [2]; in assay [3]; with Klebsiella pneumoniae [4]; in the assay on Candida albicans [6]) was inactive.
For the molecule `COc1ccc(-c2coc3cc(O)ccc3c2=O)cc1`, the result (in the assay on Staphylococcus aureus [8]; in the assay on Escherichia coli [2]; in assay [3]; in the assay on Klebsiella pneumoniae [4]; in assay [7]; in the assay with Candida albicans [6]) was inactive.
Regarding `CC1(C)C=Cc2c(O)ccc(C3=Cc4ccc(O)cc4OC3)c2O1` [GLABRENE], the MIC (with Staphylococcus aureus [1]; in [5]) was 25 µg/mL (≈ 77.6 µM) each time. The result (in the assay on Escherichia coli [2]; in assay [3]; in the assay on Klebsiella pneumoniae [4]; in the assay with Candida albicans [6]) was inactive.
`CC1(C)C=Cc2c(ccc3c2OC[C@@H](c2ccc(O)cc2O)C3)O1` [GLABRIDIN]: the MIC with Staphylococcus aureus [1] came to 6.25 µg/mL (≈ 19.3 µM); in assay [5], 6.25 µg/mL (≈ 19.3 µM); with Candida albicans [10], 25 µg/mL (≈ 77.1 µM). Further, the outcome (with Staphylococcus aureus [8]; in the assay on Escherichia coli [2]; in the assay with Escherichia coli [9]; in assay [3]; with Klebsiella pneumoniae [4]) was inactive.
Turning to `CC(C)=CCc1cc([C@@H]2CC(=O)c3ccc(O)c(CC=C(C)C)c3O2)ccc1O` [GLABROL], the MIC (in the assay on Staphylococcus aureus [1]; in assay [5]) was 1.56 µg/mL (≈ 3.97 µM) each time. For the same molecule, the result (with Escherichia coli [2]; in assay [3]; in the assay on Klebsiella pneumoniae [4]; in the assay with Candida albicans [6]) was inactive.
With `CC(C)=CCc1c(O)ccc([C@@H]2COc3c(ccc4c3C=CC(C)(C)O4)C2)c1O` [HISPAGLABRIDIN A], the MIC (against Staphylococcus aureus [1]; in assay [5]) was 3.12 µg/mL (≈ 7.95 µM) in each case. The result (in the assay with Escherichia coli [2]; in assay [3]; with Klebsiella pneumoniae [4]; in the assay with Candida albicans [6]) was inactive.
In the case of `CC1(C)C=Cc2c(ccc([C@@H]3COc4c(ccc5c4C=CC(C)(C)O5)C3)c2O)O1` [HISPAGLABRIDIN B], the MIC in the assay with Staphylococcus aureus [1] was 6.25 µg/mL (≈ 16 µM); in assay [5], 3.12 µg/mL (≈ 7.99 µM). Moreover, the outcome (in the assay on Escherichia coli [2]; in [3]; in the assay on Klebsiella pneumoniae [4]; with Candida albicans [6]) was inactive.
For the molecule `CC1(C)C=Cc2c(ccc([C@@H]3COc4cc(O)ccc4C3)c2O)O1` [PHASEOLLINISOFLAVAN], the MIC in the assay on Staphylococcus aureus [1] came to 25 µg/mL (≈ 77.1 µM); in [7] it was 12.5 µg/mL (≈ 38.5 µM). The result (in the assay on Escherichia coli [2]; in assay [3]; in the assay with Klebsiella pneumoniae [4]; with Candida albicans [6]) was inactive.
With `CN[C@@H]1[C@H](O[C@H]2[C@H](O[C@H]3[C@H](O)[C@@H](O)[C@H](N=C(N)N)[C@@H](O)[C@@H]3N=C(N)N)O[C@@H](C)[C@]2(O)C=O)O[C@@H](CO)[C@H](O)[C@H]1O.CN[C@@H]1[C@H](O[C@H]2[C@H](O[C@H]3[C@H](O)[C@@H](O)[C@H](N=C(N)N)[C@@H](O)[C@@H]3N=C(N)N)O[C@@H](C)[C@]2(O)C=O)O[C@@H](CO)[C@H](O)[C@H]1O.O=S(=O)(O)O.O=S(=O)(O)O.O=S(=O)(O)O` [STREPTOMYCIN SULFATE], the MIC against Staphylococcus aureus [1] was determined as 5 µg/mL; with Escherichia coli [9], 5 µg/mL; in [11], 50 µg/mL; against Klebsiella pneumoniae [12], 2.5 µg/mL; in [5], 1.25 µg/mL. Also, the result in the assay on Candida albicans [6] was inactive.
